Measurements as given in patent US11384078B2, “5,6-fused-bicyclic compounds and compositions for the treatment of parasitic diseases” (NOVARTIS AG, priority 2017, dated 2022).
Where two headings read alike, the source gives them in different places.

What was measured:
Assay type in all cases: cell-based
[1] = test system: Trypanosoma brucei brucei (Lister 427) strain; test: Assay for growth inhibition against Trypanosoma brucei brucei (Cell TiterGlo ATP luminescence); details: Trypanosoma brucei, T. brucei brucei (Lister 427); read-out: T. Brucei (HAT) EC50
Summary of the method: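 T. b. brucei Lister 427 grown in HMI-9 with 10% FBS and 10% serum plus, seeded at 10,000 parasites/mL with 10-point threefold compound dilutions in duplicate, 37 °C for 2 days. Viability read as ATP luminescence 30 min after Cell TiterGlo; IC50 versus untreated controls.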

[2] = test system: Leishmania donovani axenic amastigote; test: In vitro assay for growth inhibition of Leishmania donovani axenic amastigote (Cell TiterGlo luminescence); details: Leishmania donovani, L. donovani axenic amastigotes in vitro; read-out: L. donovani amastigotes EC50
Summary of the method: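 Axenic L. donovani amastigotes (9600/well) grown at 37 °C, 5% CO2 in supplemented RPMI 1640, pH 5.5, with compound added from DMSO. After two days, viability read by CellTiter-Glo luminescence against DMSO and control-compound wells.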

[3] = test system: L. donovani HU3 strain in mouse peritoneal macrophages; test: Assay for inhibition of parasitemia of Leishmania donovani in mouse macrophages (SYBR Green nuclei count, high-content imaging); details: Leishmania donovani, Peritoneal macrophage, read-out: L. donovani in Mouse Macrophages EC50
Summary of the method: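 Peritoneal macrophages from uninfected BALB/c mice were infected for 24 h with spleen-derived L. donovani HU3 (4×10^5 parasites per 2×10^4 macrophages), then cultured with compound for 5 days at 37° C, 5% CO2. After fixation and permeabilization, parasite nuclei were stained with SYBR Green and counted by high-content imaging.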

[4] = test system: Trypanosoma cruzi amastigotes cultured in 3T3 fibroblast cells; test: Assay for growth inhibition of kinetoplastid parasite Trypanosoma cruzi (beta-galactosidase Tulahuen strain, CPRG readout); details: Trypanosoma cruzi, T. cruzi amastigotes in 3T3 fibroblast cells, read-out: Buckner infectious T. cruzi EC50
Summary of the method: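 3T3 fibroblasts (1,000 cells/well) plated overnight, treated with compound in DMSO, then infected with 10,000 Lac-Z-expressing Tulahuen trypomastigotes. After 6 days, 0.6 mM CPRG with 0.6% NP-40 added for 2 h at room temperature; absorbance gives relative intracellular amastigote numbers. Benznidazole and nifurtimox serve as positive controls.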

[5] = L. donovani in mouse peritoneal macrophages

Q: Which EC50 [1] does the source give for `CC(C)c1cnc2nn(-c3cc(NC(=O)C4CC4C)ccc3F)cc2c1` (stereo not drawn) [Compound 211, N-{4-fluoro-3-[5-(propan-2-yl)-2H-pyrazolo[3,4-b]pyridin-2-yl]phenyl}-2-methylcyclopropane-1-carboxamide] here?
A: 35 nM

Q: What about the EC50 [2] of the same compound?
A: 496 nM

Q: And the EC50 [3, 5]?
A: 302 nM

Q: What about the EC50 ([4]; Fibroblast) of the same compound?
A: 72 nM

Q: Which EC50 [1] does the source give for `O=C(Nc1ccc(F)c(-n2cc3cc(Br)cnc3n2)c1)N1CC2(CC2)C1` [Compound 254, N-(3-(5-bromo-2H-pyrazolo[3,4-b]pyridin-2-yl)-4-fluorophenyl)-5-azaspiro[2.3]hexane-5-carboxamide] here?
A: 259 nM

Q: And the EC50 [2]?
A: 91 nM

Q: And the EC50 [3, 5]?
A: 673 nM

Q: And the EC50 ([4]; Fibroblast)?
A: 50 nM

Q: How did the EC50 [1] turn out when `O=C(Nc1ccc(F)c(-n2cc3cc(-c4ccccn4)cnc3n2)c1)N1CC(F)(F)C1` [Compound 39, 3,3-difluoro-N-(4-fluoro-3-(5-(pyridin-2-yl)-2H-pyrazolo[3,4-b]pyridin-2-yl)phenyl)azetidine-1-carboxamide] was run?
A: < 23 nM

Q: What about the EC50 [2] of the same compound?
A: 2.4 nM

Q: What about the EC50 [3, 5] of the same compound?
A: 3.8 nM

Q: And the EC50 ([4]; Fibroblast)?
A: 2 nM

Q: With `O=C(Nc1ccc(Cl)c(-n2cc3cc(N4CC5(CC5)C4)cnc3n2)c1)N1CCC1` [Compound 286, N-[3-(5-{5-azaspiro[2.3]hexan-5-yl}-2H-pyrazolo[3,4-b]pyridin-2-yl)-4-chlorophenyl]azetidine-1-carboxamide] as the compound, how does the EC50 [1] read?
A: 30 nM

Q: What about the EC50 [2] of the same compound?
A: 25 nM

Q: And the EC50 [3, 5]?
A: 47 nM

Q: What about the EC50 ([4]; Fibroblast) of the same compound?
A: 14 nM

Q: With `O=C(Nc1ccc(F)c(-n2cc3cc(C4CCOCC4)cnc3n2)c1)N1CCC1` [Compound 160, N-{4-fluoro-3-[5-(oxan-4-yl)-2H-pyrazolo[3,4-b]pyridin-2-yl]phenyl}azetidine-1-carboxamide] as the compound, how does the EC50 [1] read?
A: < 23 nM

Q: What about the EC50 [2] of the same compound?
A: 4.3 nM

Q: And the EC50 [3, 5]?
A: 9.8 nM

Q: And the EC50 ([4]; Fibroblast)?
A: 5.1 nM

Q: With `O=C(Nc1ccc(F)c(-n2cc3cc(N4CCCC4)cnc3n2)c1)N1CC(F)C1` [Compound 131, 3-fluoro-N-{4-fluoro-3-[5-(pyrrolidin-1-yl)-2H-pyrazolo[3,4-b]pyridin-2-yl]phenyl}azetidine-1-carboxamide] as the compound, how does the EC50 [1] read?
A: < 23 nM

Q: What about the EC50 [2] of the same compound?
A: 7 nM

Q: And the EC50 [3, 5]?
A: 5.1 nM

Q: What about the EC50 ([4]; Fibroblast) of the same compound?
A: 5.2 nM

Q: How did the EC50 [1] turn out when `CC(C)Cc1cnc2nn(-c3cc(NC(=O)N4CC(F)(F)C4)ccc3F)cc2c1` [Compound 8, 3,3-difluoro-N-(4-fluoro-3-(5-isobutyl-2H-pyrazolo[3,4-b]pyridin-2-yl)phenyl)azetidine-1-carboxamide] was run?
A: < 23 nM

Q: What about the EC50 [2] of the same compound?
A: 7.7 nM

Q: What about the EC50 [3, 5] of the same compound?
A: 3.3 nM

Q: And the EC50 ([4]; Fibroblast)?
A: 4.5 nM

Q: How did the EC50 [1] turn out when `O=C(Nc1ccc(F)c(-n2cc3cc(N4CC5(CCC5)C4)cnc3n2)c1)N1CC(F)C1` [Compound 243, N-[3-(5-{2-azaspiro[3.3]heptan-2-yl}-2H-pyrazolo[3,4-b]pyridin-2-yl)-4-fluorophenyl}-3-fluoroazetidine-1-carboxamide] was run?
A: 5 nM

Q: What about the EC50 [2] of the same compound?
A: 2100 nM

Q: What about the EC50 [3, 5] of the same compound?
A: 65 nM

Q: And the EC50 ([4]; Fibroblast)?
A: 82 nM

Q: Which EC50 [1] does the source give for `O=C(Nc1ccnc(-n2cc3cc(N4CC(F)(F)C4)cnc3n2)c1)N1CCC1` [Compound 280, N-(2-(5-(3,3-difluoroazetidin-1-yl)-2H-pyrazolo[3,4-b]pyridin-2-yl)pyridin-4-yl)azetidine-1-carboxamide] here?
A: 40 nM

Q: And the EC50 [2]?
A: 33 nM

Q: And the EC50 [3, 5]?
A: 28 nM

Q: What about the EC50 ([4]; Fibroblast) of the same compound?
A: 48 nM

Q: `O=C(Nc1ccc(F)c(-n2cc3cc(N4CCC4)cnc3n2)c1)N1CCC1` [Compound 10, N-(3-(5-(azetidin-1-yl)-2H-pyrazolo[3,4-b]pyridin-2-yl)-4-fluorophenyl)azetidine-1-carboxamide] was tested. Which EC50 [1] did it give?
A: < 23 nM

Q: What about the EC50 [2] of the same compound?
A: 16 nM

Q: What about the EC50 [3] of the same compound?
A: 7.8 nM

Q: And the EC50 [4]?
A: 4.8 nM

Q: How did the EC50 [1] turn out when `O=C(Nc1ccc(F)c(-n2cc3cc(N4CCOCC4)cnc3n2)c1)N1CC(F)C1` [Compound 132, 3-fluoro-N-{4-fluoro-3-[5-(morpholin-4-yl)-2H-pyrazolo[3,4-b]pyridin-2-yl]phenyl}azetidine-1-carboxamide] was run?
A: < 23 nM

Q: What about the EC50 [2] of the same compound?
A: 11 nM

Q: And the EC50 [3, 5]?
A: 7 nM

Q: And the EC50 ([4]; Fibroblast)?
A: 13 nM

Q: With `O=C(Nc1ccc(F)c(-n2cc3cc(N4CCCC4)cnc3n2)c1)N1CC[C@@H](F)C1` [Compound 134, (3R)-3-fluoro-N-{4-fluoro-3-[5-(pyrrolidin-1-yl)-2H-pyrazolo[3,4-b]pyridin-2-yl]phenyl}pyrrolidine-1-carboxamide] as the compound, how does the EC50 [1] read?
A: < 23 nM

Q: What about the EC50 [2] of the same compound?
A: 23 nM

Q: What about the EC50 [3, 5] of the same compound?
A: 5.4 nM

Q: And the EC50 ([4]; Fibroblast)?
A: 20 nM

Q: What does the source list for `Cc1nc(C)c(C(=O)Nc2ccc(F)c(-n3cc4cc(C5CCOCC5)cnc4n3)c2)o1` [Compound 169, N-{4-fluoro-3-[5-(oxan-4-yl)-2H-pyrazolo[3,4-b]pyridin-2-yl]phenyl}-2,4-dimethyl-1,3-oxazole-5-carboxamide]?
A: EC50 [1]: < 23 nM; EC50 [2]: 10 nM; EC50 [3, 5]: 30 nM; EC50 ([4]; Fibroblast): 14 nM

Q: How did the EC50 [1] turn out when `O=C(Nc1ccc(F)c(-n2cc3cc(N4CC5(CCO5)C4)cnc3n2)c1)N1CC(F)C1` [Compound 201, 3-fluoro-N-[4-fluoro-3-(5-{1-oxa-6-azaspiro[3.3]heptan-6-yl}-2H-pyrazolo[3,4-b]pyridin-2-yl)phenyl]azetidine-1-carboxamide] was run?
A: 5 nM

Q: And the EC50 [2]?
A: 192 nM

Q: What about the EC50 [3, 5] of the same compound?
A: 4 nM

Q: What about the EC50 ([4]; Fibroblast) of the same compound?
A: 20 nM

Q: What does the source list for `O=C(Nc1ccc(F)c(-n2cc3cc(Br)cnc3n2)c1)N1CC[C@@H](F)C1` [Compound 127, (R)—N-(3-(5-bromo-2H-pyrazolo[3,4-b]pyridin-2-yl)-4-fluorophenyl)-3-fluoropyrrolidine-1-carboxamide]?
A: EC50 [1]: < 23 nM; EC50 [2]: 25 nM; EC50 [3, 5]: 17 nM; EC50 ([4]; Fibroblast): 6.8 nM

Q: What does the source list for `O=C(Nc1ccc(F)c(-n2cc3cc(N4CC5CCC4CO5)cnc3n2)c1)N1CC(F)C1` (stereo not drawn) [Compound 197, 3-fluoro-N-[4-fluoro-3-(5-{2-oxa-5-azabicyclo[2.2.2]octan-5-yl}-2H-pyrazolo[3,4-b]pyridin-2-yl)phenyl}azetidine-1-carboxamide]?
A: EC50 [1]: 5 nM; EC50 [2]: 199 nM; EC50 [3, 5]: 13 nM; EC50 ([4]; Fibroblast): 37 nM

Q: How did the EC50 [1] turn out when `O=C(Nc1ccc(F)c(-n2cc3cc(N4CC(C(F)(F)F)C4)cnc3n2)c1)N1CC[C@@H](F)C1` [Compound 275] was run?
A: 1 nM

Q: And the EC50 [2]?
A: 3 nM

Q: And the EC50 [3, 5]?
A: 3 nM

Q: And the EC50 ([4]; Fibroblast)?
A: 1 nM

Q: How did the EC50 [1] turn out when `CC(C)CNc1cnc2nn(-c3cc(NC(=O)N4CC(F)C4)ccc3F)cc2c1` [Compound 198, 3-fluoro-N-(4-fluoro-3-{5-[(2-methylpropyl)amino]-2H-pyrazolo[3,4-b]pyridin-2-yl}phenyl)azetidine-1-carboxamide] was run?
A: 5 nM

Q: What about the EC50 [2] of the same compound?
A: 546 nM

Q: And the EC50 [3, 5]?
A: 49 nM

Q: What about the EC50 ([4]; Fibroblast) of the same compound?
A: 23 nM

Q: How did the EC50 [1] turn out when `Cc1cccnc1-c1cnc2nn(-c3cc(NC(=O)c4oc(CO)nc4C)ccc3F)cc2c1` [Compound 334, N-(4-fluoro-3-(5-(3-methylpyridin-2-yl)-2H-pyrazolo[3,4-b]pyridin-2-yl)phenyl)-2-(hydroxymethyl)-4-methyloxazole-5-carboxamide] was run?
A: 269 nM

Q: What about the EC50 [2] of the same compound?
A: 236 nM

Q: What about the EC50 [3, 5] of the same compound?
A: 1870 nM

Q: What about the EC50 ([4]; Fibroblast) of the same compound?
A: 1460 nM

Q: With `O=C(Nc1ccc(F)c(-n2cc3cc(C4CCN(Cc5ccccc5)CC4)cnc3n2)c1)N1CC(F)C1` [Compound 296, N-{3-[5-(1-benzylpiperidin-4-yl)-2H-pyrazolo[3,4-b]pyridin-2-yl]-4-fluorophenyl}-3-fluoroazetidine-1-carboxamide] as the compound, how does the EC50 [1] read?
A: 5 nM

Q: What about the EC50 [2] of the same compound?
A: 216 nM

Q: What about the EC50 [3, 5] of the same compound?
A: 2 nM

Q: And the EC50 ([4]; Fibroblast)?
A: 5 nM

Q: How did the EC50 [1] turn out when `CC(C)OC(=O)Nc1cnc2nn(-c3cc(NC(=O)N4CC[C@@H](F)C4)ccc3F)cc2c1` [Compound 136] was run?
A: < 23 nM

Q: What about the EC50 [2] of the same compound?
A: 30 nM

Q: What about the EC50 [3, 5] of the same compound?
A: 19 nM

Q: And the EC50 ([4]; Fibroblast)?
A: 170 nM

Q: `CC1(C)CN(c2cnc3nn(-c4cc(NC(=O)N5CC(F)C5)ccc4F)cc3c2)C1` [Compound 255, N-{3-[5-(3,3-dimethylazetidin-1-yl)-2H-pyrazolo[3,4-b]pyridin-2-yl]-4-fluorophenyl}-3-fluoroazetidine-1-carboxamide] was tested. Which EC50 [1] did it give?
A: 5 nM

Q: And the EC50 [2]?
A: 42 nM

Q: And the EC50 [3, 5]?
A: 28 nM

Q: What about the EC50 ([4]; Fibroblast) of the same compound?
A: 15 nM

Q: For `CC(C)c1cnc2nn(-c3cc(NC(=O)CC4CC4)ccc3F)cc2c1` [Compound 69, 2-cyclopropyl-N-{4-fluoro-3-[5-(propan-2-yl)-2H-pyrazolo[3,4-b]pyridin-2-yl]phenyl}acetamide], which EC50 [1] is on record?
A: 40 nM

Q: What about the EC50 [2] of the same compound?
A: 170 nM

Q: What about the EC50 [3, 5] of the same compound?
A: 150 nM

Q: What about the EC50 ([4]; Fibroblast) of the same compound?
A: 68 nM

Q: Which EC50 [1] does the source give for `O=C(Nc1ccc(F)c(-n2cc3cc(-c4ccccn4)cnc3n2)c1)[C@@H]1C[C@@H]1F` (racemic) [Compound 349, (1S,2S)-2-fluoro-N-{4-fluoro-3-[5-(pyridin-2-yl)-2H-pyrazolo[3,4-b]pyridin-2-yl]phenyl}cyclopropane-1-carboxamide] here?
A: 43 nM

Q: And the EC50 [2]?
A: 96 nM

Q: And the EC50 [3, 5]?
A: 102 nM

Q: What about the EC50 ([4]; Fibroblast) of the same compound?
A: 85 nM
